Among the data in patent publication US9067937B2 (priority 2012, dated 2015) are IC50 values, retold here.

For assay [1], the system named is HT1197 cells. Nature of the assay: Cell-based assay, anti-proliferative activity, MELK-negative control (Cell Counting Kit-8, 72 hours). Also on record: species or system human. The conditions noted are these: Homo sapiens, HT1197, 72 h, read-out: IC50 (μM) (HTll97). How it is done:
100 micro-L of cell suspension was seeded onto 96-well microtiter plate (ViewPlate-96FTC, PerkinElmer). The initial cell concentration of 22Rv1, T47D, A549, DU4475, and HT1197 were 3,000 cells/well, 2,000 cells/well and 2,500 cells/well, respectively. Cellular growth was determined using Cell Counting Kit-8 (DOJINDO) at 72 hours after the exposure of the candidate inhibitors. […] Accurate IC50 values were calculated as described previously.
A general note: Formazan colour is commonly taken as a measure of viable cells.

For assay [2], the system named is DU4475 cells. Nature of the assay: Cell-based assay, anti-proliferative activity (Cell Counting Kit-8, 72 hours). The conditions noted are these: Homo sapiens, DU-4475, 72 h, read-out: IC50 (μM) (DU4475). On the set-up: species or system human. The essentials:
(§1)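 Cells seeded at 2,000–3,000 cells/well and exposed to candidate MELK inhibitors for 72 hours; growth measured with Cell Counting Kit-8. IC50 values calculated from the growth read-out.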

Assay [3] deals with A549 cells. The assay is described as above. On the set-up: species or system human. The conditions noted are these: Homo sapiens, A549, 72 h, read-out: IC50 (μM) (A549). In outline:
as §1

Assay [4] has as its system T47D cells. Described as above. Also on record: species or system human. The conditions noted are these: Homo sapiens, T47D, 72 h, read-out: IC50 (μM) (T47D). The essentials:
as §1

Assay [5] concerns 22Rv1 cells. The description is as above. Also on record: species or system human. The conditions noted are these: Homo sapiens, 22Rv1, 72 h, read-out: IC50 (μM) (22Rvl). The essentials: as §1
In assay [6] the target is MELK (Homo sapiens, UniProt Q14680). Put plainly: Kinase assay (IMAP fluorescence polarization, FITC-labeled histone H3 peptide). In kind it is biochemical. The settings on record: 50 micro-M ATP. In outline:
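Kinase (0.8 ng/μL) reacted with 100 nM FITC-histone H3 peptide and 50 μM ATP in 20 mM HEPES, 0.3 mM MgCl2, 2 mM DTT, 0.01% Tween-20, pH 7.4, for 1 hour at room temperature. Phosphorylation read by IMAP fluorescence polarization after adding binding solution; IC50 from four-parameter fit.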

Where a name gives a salt, the structure may show the parent alone.

Sequence of MELK (Q14680 whole entry, looked up): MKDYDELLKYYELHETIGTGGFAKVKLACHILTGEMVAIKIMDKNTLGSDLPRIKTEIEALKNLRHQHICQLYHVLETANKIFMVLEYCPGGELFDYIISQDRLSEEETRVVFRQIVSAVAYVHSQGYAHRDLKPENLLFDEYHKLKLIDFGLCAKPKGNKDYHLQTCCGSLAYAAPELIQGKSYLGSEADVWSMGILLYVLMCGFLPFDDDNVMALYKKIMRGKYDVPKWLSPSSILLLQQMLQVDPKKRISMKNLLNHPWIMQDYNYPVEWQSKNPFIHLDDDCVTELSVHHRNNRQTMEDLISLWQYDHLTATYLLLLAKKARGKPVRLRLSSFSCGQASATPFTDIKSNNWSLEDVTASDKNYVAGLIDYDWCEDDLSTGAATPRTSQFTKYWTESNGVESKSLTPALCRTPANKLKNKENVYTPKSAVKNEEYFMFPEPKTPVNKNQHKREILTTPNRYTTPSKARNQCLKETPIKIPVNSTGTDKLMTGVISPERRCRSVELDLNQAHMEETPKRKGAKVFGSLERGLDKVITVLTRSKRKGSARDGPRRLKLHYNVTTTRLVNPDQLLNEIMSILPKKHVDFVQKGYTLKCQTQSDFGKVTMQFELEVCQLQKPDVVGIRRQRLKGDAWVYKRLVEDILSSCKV

A word on the IC50: it is the concentration needed to halve the response being measured. As to `N[C@H]1CCCN(c2ccc(Nc3c(C(=O)C4CC4)cnc4ccc(-c5cc(F)c(O)c(Cl)c5)nc34)cn2)C1` [Example 83, (S)-{4-[6-(3-Aminopiperidin-1-yl)pyridin-3-ylamino]-6-(3-chloro-5-fluoro-4-hydroxyphenyl)-1,5-naphthyridin-3-yl}(cyclopropyl)methanone], the 50% inhibitory concentration (IC50) in assay [1] is 2.7 µM; in assay [2], 0.015 µM; in assay [3] it was 0.09 µM; in assay [4], 0.012 µM; in assay [5], 0.025 µM; in assay [6] it was 0.001 µM.
On to `CC(=O)c1cnc2ccc(-c3cc(F)c(O)c(Cl)c3)nc2c1Nc1ccc(CN2CCN(C)CC2)cc1` [Example 35, 1-[6-(3-Chloro-5-fluoro-4-hydroxyphenyl)-4-{4-[(4-methylpiperazin-1-yl)methyl]phenylamino}-1,5-naphthyridin-3-yl]ethanone trihydrochloride], for which the IC50 in assay [1] turned out to be 3.8 µM; in assay [2] it was 0.31 µM; in assay [3], 0.41 µM; in assay [4], 0.22 µM; in assay [5], 0.65 µM; in assay [6] it was 0.037 µM.
For `CN(C)Cc1ccc(Nc2c(S(C)(=O)=O)cnc3ccc(-c4cc(Cl)c(O)c(Cl)c4)nc23)cc1` [Example 16, 2,6-Dichloro-4-(8-{4-[(dimethylamino)methyl]phenylamino}-7-(methylsulfonyl)-1,5-naphthyridin-2-yl)phenol dihydrochloride], the IC50 in assay [1] worked out at 4.4 µM; in assay [2], 0.031 µM; in assay [3], 0.47 µM; in assay [4], 0.078 µM; in assay [5], 0.17 µM; in assay [6], 0.0028 µM.
As for `COc1cc(-c2ccc3ncc(C(C)=O)c(Nc4ccc(CCN(C)C)cc4)c3n2)cc(Cl)c1O` [Example 31, 1-(6-(3-Chloro-4-hydroxy-5-methoxyphenyl)-4-(4-(2-(dimethyl-amino)ethyl)phenylamino)-1,5-naphthyridin-3-yl) ethanone dihydrochloride], the 50% inhibitory concentration (IC50) in assay [1] came to 4.4 µM; in assay [2], 0.19 µM; in assay [3], 0.31 µM; in assay [4], 0.41 µM; in assay [5], 0.65 µM; in assay [6] it was 0.0037 µM.
With `CC(=O)c1cnc2ccc(-c3cc(F)c(O)c(Cl)c3)nc2c1Nc1ccc(CCN(C)C)cc1` [Example 30, 1-[6-(3-Chloro-5-fluoro-4-hydroxyphenyl)-4-{4-[2-(dimethylamino)ethyl]phenylamino}-1,5-naphthyridin-3-yl)ethanone dihydrochloride], the concentration for half-maximal inhibition (IC50) in assay [1] stood at 1.2 µM; in assay [2], 0.041 µM; in assay [3], 0.14 µM; in assay [4], 0.11 µM; in assay [5] it was 0.17 µM; in assay [6], 0.0059 µM.
Consider `N[C@H]1CCCN(c2ccc(Nc3c(C(=O)C4CC4)cnc4ccc(-c5cc(Cl)c(O)c(Cl)c5)nc34)cn2)C1` [Example 40, (S)-{4-[6-(3-Aminopiperidin-1-yl)pyridin-3-ylamino]-6-(3,5-dichloro-4-hydroxyphenyl)-1,5-naphthyridin-3-yl}(cyclopropyl)methanone trihydrochloride], for which the IC50 in assay [1] was determined as 4.2 µM; in assay [2], 0.02 µM; in assay [3], 0.29 µM; in assay [4], 0.025 µM; in assay [5], 0.034 µM; in assay [6], 0.0012 µM.
For the compound `CC(=O)c1cnc2ccc(-c3cc(F)c(O)c(Cl)c3)nc2c1N[C@H]1CC[C@@H](CN(C)C)CC1` [Example 93, 1-{6-(3-Chloro-5-fluoro-4-hydroxyphenyl)-4-({cis-4-[(dimethylamino)methyl]cyclohexyl}-amino)-1,5-naphthyridin-3-yl}ethanone dihydrochloride], the half-inhibitory concentration (IC50) in assay [1] turned out to be 0.19 µM; in assay [2] it was 0.011 µM; in assay [3], 0.039 µM; in assay [4], 0.02 µM; in assay [5], 0.032 µM; in assay [6], 0.0011 µM.
`CC(=O)c1cnc2ccc(-c3cc(F)c(O)c(Cl)c3)nc2c1N[C@H]1CC[C@H](CN(C)CCO)CC1` [Example 49, 1-[6-(3-Chloro-5-fluoro-4-hydroxyphenyl)-4-(trans-4-{[(2-hydroxyethyl)(methyl)amino]-methyl}cyclohexylamino)-1,5-naphthyridin-3-yl]ethanone dihydrochloride]: the concentration for half-maximal inhibition (IC50) in assay [1] was found to be 0.49 µM; in assay [2] it was 0.0039 µM; in assay [3], 0.021 µM; in assay [4], 0.0039 µM; in assay [5], 0.0087 µM; in assay [6] it was 0.001 µM.
Regarding `CN(C)C[C@H]1CC[C@H](Nc2c(C(=O)C3CC3)cnc3ccc(-c4cc(Cl)c(O)c(Cl)c4)nc23)CC1` [Example 4, Cyclopropyl(6-(3,5-dichloro-4-hydroxyphenyl)-4-{trans-4-[(dimethylamino)methyl]-cyclohexylamino}-1,5-naphthyridin-3-yl)methanone dihydrochloride], the half-maximal inhibitory concentration (IC50) in assay [1] was 0.036 µM; in assay [2], 0.0026 µM; in assay [3] it was 0.0062 µM; in assay [4], 0.0055 µM; in assay [5] it was 0.0064 µM; in assay [6] it was 0.0005 µM.
For the compound `CC(=O)c1cnc2ccc(-c3cc(F)c(O)c(F)c3)nc2c1N[C@H]1CC[C@H](CN(C)C)CC1` [Example 50, 1-[6-(3,5-Difluoro-4-hydroxyphenyl)-4-{trans-4-[(dimethylamino)methyl]cyclohexylamino}-1,5-naphthyridin-3-yl]ethanone dihydrochloride], the half-inhibitory concentration (IC50) in assay [1] is 0.08 µM; in assay [2], 0.0053 µM; in assay [3] it was 0.015 µM; in assay [4], 0.0061 µM; in assay [5], 0.017 µM; in assay [6], 0.0019 µM.
For the compound `CC(=O)c1cnc2ccc(-c3cc(F)c(O)c(Cl)c3)nc2c1Nc1ccc(N2CCC[C@H](N)C2)nc1` [Example 72, (S)-1-(4-{[6-(3-Aminopiperidin-1-yl)pyridin-3-yl]amino}-6-(3-chloro-5-fluoro-4-hydroxy-phenyl)-1,5-naphthyridin-3-yl)ethanone trihydrochloride], the IC50 in assay [1] is 1.2 µM; in assay [2] it was 0.014 µM; in assay [3], 0.047 µM; in assay [4], 0.0053 µM; in assay [5], 0.014 µM; in assay [6], 0.0043 µM.
Turning to `CN(C)C[C@H]1CC[C@H](Nc2c(C(=O)CO)cnc3ccc(-c4cc(F)c(O)c(Cl)c4)nc23)CC1` [Example 204, 1-[6-(3-chloro-5-fluoro-4-hydroxyphenyl)-4-({trans-4-[(dimethylamino)methyl]cyclohexyl}amino)-1,5-naphthyridin-3-yl)]-2-hydroxyethanone dihydrochloride], the concentration for half-maximal inhibition (IC50) is 10 µM in assay [1]; 0.013 µM in assay [2]; 0.058 µM in assay [3]; 0.014 µM in assay [4]; 0.02 µM in assay [5]; 0.0013 µM in assay [6].
For the compound `CC(=O)c1cnc2ccc(-c3cc(Cl)c(O)c(Cl)c3)nc2c1N[C@H]1CC[C@H](CO)CC1` [Example 43, 1-(6-{3,5-Dichloro-4-hydroxyphenyl)-4-[trans-4-(hydroxymethyl)cyclohexyl]amino}-1,5-naphthyridin-3-yl)ethanone hydrochloride], the IC50 was determined as 0.64 µM in assay [1]; 0.019 µM in assay [2]; 0.057 µM in assay [3]; 0.024 µM in assay [4]; 0.085 µM in assay [5]; 0.0031 µM in assay [6].
In the case of `CC(=O)c1cnc2ccc(-c3cc(F)c(O)c(Cl)c3)nc2c1N[C@H]1CC[C@H](N)CC1` [Example 67, 1-{4-[trans-(4-Aminocyclohexyl)amino]-6-(3-chloro-5-fluoro-4-hydroxyphenyl)-1,5-naphthyridin-3-yl}ethanone dihydrochloride], the IC50 in assay [1] was determined as 2.8 µM; in assay [2] it was 0.0012 µM; in assay [3] it was 0.022 µM; in assay [4] it was 0.0019 µM; in assay [5] it was 0.0061 µM; in assay [6] it was 0.0012 µM.
Regarding `CN(C)C[C@H]1CC[C@H](Nc2c(C(=O)C3CC3)cnc3ccc(-c4cc(F)c(O)c(Cl)c4)nc23)CC1` [Example 5, (6-(3-Chloro-5-fluoro-4-hydroxyphenyl)-4-{trans-4-[(dimethylamino)methyl]cyclohexyl-amino}-1,5-naphthyridin-3-yl)(cyclopropyl)methanone dihydrochloride], the IC50 in assay [1] came out at 0.018 µM; in assay [2] it was 0.003 µM; in assay [3], 0.0061 µM; in assay [4], 0.0029 µM; in assay [5], 0.0057 µM; in assay [6] it was 0.0008 µM.
`CC(=O)c1cnc2ccc(-c3cc(Cl)c(O)c(Cl)c3)nc2c1Nc1ccc(OCCN(C)C)nc1` [Example 21, 1-[6-(3,5-Dichloro-4-hydroxyphenyl)-4-{6-[2-(dimethylamino)ethoxy]pyridin-3-ylamino}-1,5-naphthyridin-3-yl)ethanone dihydrochloride]: the concentration for half-maximal inhibition (IC50) in assay [1] was 2.3 µM; in assay [2], 0.096 µM; in assay [3], 0.21 µM; in assay [4], 0.1 µM; in assay [5] it was 0.27 µM; in assay [6], 0.0046 µM.
